Patent US8344181B2, “N-2 adamantanyl-2-phenoxy-acetamide derivatives as 11-beta hydroxysteroid dehydrogenase inhibitors” (Janssen Pharmaceutica N.V., priority 2004, dated 2013)

How the values were obtained:
11β-HSD2 = target: T1, 11β-HSD2 (Homo sapiens, UniProt P80365); experiment: Cellular assay of 11β-HSD2 activity in HepG2 cells; format: cell-based; conditions: 4 hour pre-incubation, 10^-5M to 10^-10M, read-out: HSD2 cellular HepG2 Score
T1 construct: endogenous in cells; host or cells: HepG2 (ATCC HB-8065)
T1 sequence (P80365 1-405): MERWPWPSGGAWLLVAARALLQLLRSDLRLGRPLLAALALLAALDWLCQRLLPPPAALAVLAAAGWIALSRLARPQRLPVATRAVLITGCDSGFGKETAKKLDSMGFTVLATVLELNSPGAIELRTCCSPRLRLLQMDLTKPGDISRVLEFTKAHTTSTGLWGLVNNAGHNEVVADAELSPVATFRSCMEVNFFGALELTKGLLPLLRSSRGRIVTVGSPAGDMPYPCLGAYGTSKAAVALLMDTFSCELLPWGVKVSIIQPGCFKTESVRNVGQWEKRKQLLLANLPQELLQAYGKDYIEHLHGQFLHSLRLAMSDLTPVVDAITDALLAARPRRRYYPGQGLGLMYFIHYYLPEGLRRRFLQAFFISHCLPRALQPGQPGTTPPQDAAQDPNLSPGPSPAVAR
Method: The effects on 11β-HSD2 activity was studied in HepG2 and LCC-PK1-cells HepG2-cells (ATCC HB-8065) were seeded in 12 well plates at a density of 100,000 cells/ml and grown at 37° C. in a humidified 5% CO2 atmosphere in MEM-Rega-3 medium supplemented with 10% heat inactivated foetal calf serum, 2 mM L-glutamine and sodium bicarbonate). Medium was refreshed twice a week.
Following a 4 hour pre-incubation with test compound, 0.5 μCi ^3H-cortisol or corticosterone, was added to the cultures. One hour later, the medium was extracted on Extrelut^3-columns with 15 ml diethyl ether and the extract was analysed by HPLC as described above.
(§1) As for the enzymatic assays, the compounds to be tested were taken from a stock solution and tested at a final concentration ranging from 10^−5M to 10^−10M. From the thus obtained dose response curves, the pIC50 value was calculated and scored as follows; Score 1=pIC50 value<5, Score 2=pIC50 value in the range of 5 to 6, Score 3=pIC50 value>6. (in this table NT stands for Not Tested).

11β-HSD1 = target: T2, 11β-HSD1 (Mus musculus, UniProt P50172); experiment: Cellular assay of 11β-HSD1 activity in differentiated 3T3-L1 cells; format: cell-based; conditions: 4 hour pre-incubation, 10^-5M to 10^-10M, read-out: HSD1 cellular 3T3-L1 Score
T2 construct: endogenous in cells; host or cells: 3T3-L1 (ATCC-CL-173), differentiated into adipocytes
Method: The effects on 11β-HSD1 activity was measured in differentiated 3T3-L1 cells and rat hepatocytes.
Mouse fibroblast 3T3-L1 cells (ATCC-CL-173) were seeded at a density of 16500 cells/ml in 12 well plates and grown for 7 days in DMEM medium (supplemented with 10% heat inactivated foetal calf serum, 2 mM glutamine and 25 mg gentamycin) at 37° C. in a humidified 5% CO2 atmosphere. Medium was refreshed twice a week. Fibroblasts were differentiated into adipocytes at 37° C. in a 5% CO2 humidified atmosphere in growth medium containing 2 μg/ml insulin, 55 μg/ml IBMX and 39.2 μg/ml dexamethasone.
Primary hepatocytes from male rats were seeded on normal Falcon 12 well plates at a density of 250000 cells/well and incubated for 16 hours at 37° C. in a 5% CO2 humidified atmosphere in DMEM-HAM's F12 medium containing 5% Nu-serum, 100 U/ml penicillin, 100 μg/ml streptomycin, 0.25 μg/ml amphotericin B, 50 μg/ml gentamycin sulfate, 5 μg/ml insulin and 392 ng/ml dexamethasone. Following a 4 hour pre-incubation with test compound, 0.5 μCi ^3H-cortisone or dehydrocorticosterone, was added to the 3T3-L1 cultures. One hour later, the medium was extracted on Extrelut^3-columns with 15 ml diethyl ether and the extract was analysed by HPLC as described above. The effects of JNJ-compounds on rat hepatocyte HSD1 activity was measured after an incubation period of 90 minutes with 0.5 μCi^3H-dehydrocorticosterone. Corticosterone formation was analysed by HPLC.
as §1

T2 sequence (P50172 whole entry): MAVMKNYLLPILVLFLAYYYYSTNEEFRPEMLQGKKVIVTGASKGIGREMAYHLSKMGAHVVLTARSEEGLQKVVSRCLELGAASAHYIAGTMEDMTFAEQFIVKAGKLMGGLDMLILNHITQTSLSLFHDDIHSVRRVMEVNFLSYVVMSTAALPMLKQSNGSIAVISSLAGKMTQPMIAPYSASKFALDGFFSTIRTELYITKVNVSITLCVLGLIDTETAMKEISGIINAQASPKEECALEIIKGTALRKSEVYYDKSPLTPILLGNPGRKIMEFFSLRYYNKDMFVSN

Row | Compound | IC50 (11β-HSD2) [nM] | IC50 (11β-HSD1) [nM]
1 | CC(C)(Sc1ccc(Cl)cc1)C(=O)N[C@H]1[C@@H]2CC3C[C@H]1C[C@](O)(C3)C2 [Compound 4] | 1000 to 10000 | < 1000
2 | Cc1cc(C)cc(OC(C)(C)C(=O)N[C@H]2[C@@H]3CC4C[C@H]2C[C@](O)(C4)C3)c1 [Compound 16] | < 1000 | < 1000
3 | Cc1ccc(S(=O)(=O)N[C@@]23CC4C[C@H](C2)[C@H](NC(=O)C(C)(C)Oc2cccc(C(F)(F)F)c2)[C@@H](C4)C3)cc1 [Compound 89] | > 10000 | < 1000
4 | CC(C)(Oc1cccc(C(F)(F)F)c1)C(=O)N[C@H]1[C@@H]2CC3C[C@H]1C[C@](O)(C3)C2 [Compound 20] | < 1000 | < 1000
5 | O=C(N[C@H]1[C@@H]2CC3C[C@H]1C[C@](O)(C3)C2)[C@H]1CCc2cc(F)ccc2O1 [Compound 21] | < 1000 | < 1000
6 | Cc1cc(Cl)ccc1OC(C)(C)C(=O)N[C@H]1[C@@H]2CC3C[C@H]1C[C@](N1CCC(C)C1=O)(C3)C2 (stereo partly drawn) [Compound 91] | < 1000 | < 1000
7 | Cc1cc(Cl)ccc1OC(C)(C)C(=O)N[C@H]1[C@@H]2CC3C[C@H]1C[C@](NC(=O)CN(C)C)(C3)C2 [Compound 72] | 1000 to 10000 | < 1000
8 | Cc1ccc(NC(C)(C)C(=O)N[C@H]2[C@@H]3CC4C[C@H]2C[C@](F)(C4)C3)cc1 [Compound 62] | > 10000 | < 1000
9 | Cc1cc(C)cc(OC(C)(C)C(=O)NC2C3CC4CC(C3)CC2C4)c1 (stereo not drawn) [Compound 2] | > 10000 | < 1000
10 | COc1ccc(NC(C)(C)C(=O)N[C@H]2[C@@H]3CC4C[C@H]2C[C@](F)(C4)C3)cc1 [Compound 59] | > 10000 | < 1000
11 | COc1cccc(NC(C)(C)C(=O)N[C@H]2[C@@H]3CC4C[C@H]2C[C@](F)(C4)C3)c1 [Compound 56] | > 10000 | < 1000
12 | Cc1ccc2c(c1)NCC(C(=O)N[C@H]1[C@@H]3CC4C[C@H]1C[C@](O)(C4)C3)O2 (stereo partly drawn) [Compound 11] | 1000 to 10000 | < 1000
13 | CC(C)(C(=O)N[C@H]1[C@@H]2CC3C[C@H]1C[C@](O)(C3)C2)S(=O)(=O)c1ccc(Cl)cc1 [Compound 3] | < 1000 | < 1000
14 | CC(C)(Oc1cccc(C(F)(F)F)c1)C(=O)N[C@H]1[C@@H]2CC3C[C@H]1C[C@](NS(=O)(=O)CC(F)(F)F)(C3)C2 [Compound 88] | 1000 to 10000 | < 1000
15 | CC(C)(Nc1cccc(C(F)(F)F)c1)C(=O)N[C@H]1[C@@H]2CC3C[C@H]1C[C@](F)(C3)C2 [Compound 61] | > 10000 | < 1000
16 | Cc1cc(Cl)ccc1OC(C)(C)C(=O)N[C@H]1[C@@H]2CC3C[C@H]1C[C@](NS(=O)(=O)N(C)C)(C3)C2 [Compound 30] | 1000 to 10000 | < 1000
17 | Cc1ccc(OC(C)(C)C(=O)N[C@H]2[C@@H]3CC4C[C@H]2C[C@](O)(C4)C3)cc1 [Compound 13] | < 1000 | < 1000
18 | CC(C)(Oc1cccc(C(F)(F)F)c1)C(=O)N[C@H]1[C@@H]2CC3C[C@H]1C[C@](NS(C)(=O)=O)(C3)C2 [Compound 83] | 1000 to 10000 | < 1000
19 | O=C(N[C@H]1[C@@H]2CC3C[C@H]1C[C@](O)(C3)C2)C1COc2ccccc2O1 (stereo partly drawn) [Compound 8] | 1000 to 10000 | < 1000
20 | CCC(=O)N[C@@]12CC3C[C@H](C1)[C@H](NC(=O)C(C)(C)Oc1ccc(Cl)cc1C)[C@@H](C3)C2 [Compound 63] | < 1000 | < 1000
21 | O=C(N[C@H]1[C@@H]2CC3C[C@H]1C[C@](O)(C3)C2)C1CCc2ccccc2O1 (stereo partly drawn) [Compound 26] | < 1000 | < 1000

Row | Compound | IC50 (11β-HSD2) [nM] | IC50 (11β-HSD1) [nM]
22 | Cc1ccc(OC(C)(C)C(=O)N[C@H]2[C@@H]3CC4C[C@H]2C[C@](OCc2ccccc2)(C4)C3)cc1 [Compound 52] | 1000 to 10000 | < 1000
23 | CC(C)(Oc1cccc(Br)c1)C(=O)N[C@H]1[C@@H]2CC3C[C@H]1C[C@](NC(=O)CCl)(C3)C2 [Compound 90] | 1000 to 10000 | < 1000
24 | CN(C)c1cccc(OC(C)(C)C(=O)N[C@H]2[C@@H]3CC4C[C@H]2C[C@](O)(C4)C3)c1 [Compound 18] | < 1000 | < 1000
25 | Cc1cc(Cl)ccc1OC(C)(C)C(=O)N[C@H]1[C@@H]2CC3C[C@H]1C[C@](NC(=O)CCl)(C3)C2 [Compound 31] | 1000 to 10000 | < 1000
26 | Cc1cccc(NC(C)(C)C(=O)N[C@H]2[C@@H]3CC4C[C@H]2C[C@](O)(C4)C3)c1 [Compound 55] | > 10000 | < 1000
27 | Cc1cc(Cl)ccc1OC(C)(C)C(=O)N[C@H]1[C@@H]2CC3C[C@H]1C[C@](NC(=O)CN(C)CCO)(C3)C2 [Compound 42] | 1000 to 10000 | < 1000
28 | CC(=O)N[C@@]12CC3C[C@H](C1)[C@H](NC(=O)C(C)(C)Nc1ccc(Br)cc1C)[C@@H](C3)C2 [Compound 74] | 1000 to 10000 | < 1000
29 | COC(=O)CC(=O)N[C@@]12CC3C[C@H](C1)[C@H](NC(=O)C(C)(C)Oc1ccc(Cl)cc1C)[C@@H](C3)C2 [Compound 38] | 1000 to 10000 | < 1000
30 | Cc1cc(Cl)ccc1OC(C)(C)C(=O)N[C@H]1[C@@H]2CC3C[C@H]1C[C@](C(=O)O)(C3)C2 [Compound 50] | 1000 to 10000 | < 1000
31 | CC(=O)N[C@@]12CC3C[C@H](C1)[C@H](NC(=O)C(C)(C)Oc1ccc(Cl)cc1C)[C@@H](C3)C2 [Compound 29] | < 1000 | < 1000
32 | CN(C)S(=O)(=O)N[C@@]12CC3C[C@H](C1)[C@H](NC(=O)C(C)(C)Oc1cccc(C(F)(F)F)c1)[C@@H](C3)C2 [Compound 92] | 1000 to 10000 | < 1000
33 | Cc1cc(Cl)ccc1OC(C)(C)C(=O)N[C@H]1[C@@H]2CC3C[C@H]1C[C@](N1CCCC1=O)(C3)C2 [Compound 39] | < 1000 | < 1000
34 | Cc1c(C(=O)N[C@H]2[C@@H]3CC4C[C@H]2C[C@](O)(C4)C3)oc2ccccc12 [Compound 7] | > 10000 | < 1000
35 | CC(C)(Oc1ccccc1)C(=O)N[C@H]1[C@@H]2CC3C[C@H]1C[C@](O)(C3)C2 [Compound 69] | 1000 to 10000 | < 1000
36 | COc1cccc(OC(C)(C)C(=O)N[C@H]2[C@@H]3CC4C[C@H]2C[C@](O)(C4)C3)c1 [Compound 14] | < 1000 | < 1000
37 | Cc1c(C)c2c(c(C)c1O)CCC(C)(C(=O)N[C@H]1[C@@H]3CC4C[C@H]1C[C@](O)(C4)C3)O2 (stereo partly drawn) [Compound 28] | < 1000 | < 1000
38 | COc1cccc(NC(C)(C)C(=O)N[C@H]2[C@@H]3CC4C[C@H]2C[C@](O)(C4)C3)c1 [Compound 53] | > 10000 | < 1000
39 | O=C(N[C@H]1[C@@H]2CC3C[C@H]1C[C@](O)(C3)C2)C1Cc2ccccc2O1 (stereo partly drawn) [Compound 24] | 1000 to 10000 | < 1000
40 | CC(C)(Nc1cccc(C(F)(F)F)c1)C(=O)N[C@H]1[C@@H]2CC3C[C@H]1C[C@](O)(C3)C2 [Compound 60] | > 10000 | < 1000
41 | Cc1cc(Cl)ccc1OC(C)(C)C(=O)N[C@H]1[C@@H]2CC3C[C@H]1C[C@](NC(=O)CN1CCOCC1)(C3)C2 [Compound 73] | 1000 to 10000 | < 1000
42 | Cc1ccc(OC(C)(C)C(=O)N[C@H]2[C@@H]3CC4C[C@H]2C[C@](OC(=O)Nc2cccc(C)c2)(C4)C3)cc1 [Compound 47] | 1000 to 10000 | < 1000
